Measured values as given in patent publication US5464607A, “5,5'-/(1,3-propanediyl) bis-/imino(2-oxo-2,1-ethanediyl)acetylimino/bis(2,4,6-triiodo-1,3-benzen edicarboxylamides), and contrast media containing them” (Dibra S.p.A., priority 1991, dated 1995).

How the values were obtained:
[1] = Osmolality (steampressure osmometer Wescor mod 5500); assay type: physicochemical
Text: ^a) Calculated with a steampressure osmometer Wescor(R) mod 5500,
calibrated with NaCl aqueous solutions.

[2] = Viscosity (ROTOVISCO RV100CV100-LV100, sensor ZB15); assay type: physicochemical
Text: ^b) Calculated with ROTOVISCO^(R) RV100CV100-LV100, sensor ZB15.

[3] = water
[4] = physchem; settings: water

CC(=O)N(CC(=O)NCC(O)CNC(=O)CN(C(C)=O)c1c(I)c(C(=O)NCC(O)CO)c(I)c(C(=O)NCC(O)CO)c1I)c1c(I)c(C(=O)NCC(O)CO)c(I)c(C(=O)NCC(O)CO)c1I (centres unmarked) [5,5'-[(2-hydroxy-1,3-propanediyl)bis [imino(2-oxo-2,1-ethanediyl)acetylimino]]bis[N,N'-bis(2,3-dihydroxypropyl)-2,4,6-triiodo-1,3-benzenedicarboxyamide]]
Osmolality ([1]; 200 mgI/ml): 0,17 osmol/kg H2 O | Osmolality ([1]; 300 mgI/ml): 0,25 osmol/kg H2 O | Osmolality ([1]; 400 mgI/ml): 0,72 osmol/kg H2 O | Viscosity at 20° C. ([2]; 200 mgI/ml): 5,7 mPa·s | Viscosity at 20° C. ([2]; 300 mgI/ml): 24 mPa·s | Viscosity at 20° C. ([2]; 400 mgI/ml): 112 mPa·s | Viscosity at 37° C. ([2]; 200 mgI/ml): 3,4 mPa·s | Viscosity at 37° C. ([2]; 300 mgI/ml): 12 mPa·s | Viscosity at 37° C. ([2]; 400 mgI/ml): 41 mPa·s | Solubility in H2 O at 30° C. [3]: > 100 g in 100 ml | solubility [4]: > 1000 mg/mL
